Experimental findings from publication PMC13242511, “Disrupting Notch signalling by a small molecule inhibiting dihydroorotate dehydrogenase activity” (Scientific Reports, 2026) are described below.

Read-outs that look alike come from different tables or passages of the source.

In one test the test system is JURKAT cells. The experiment in a line: Growth inhibition, metabolic activity (CellTiter-Glo). Type of test: cell-based. The settings on record: Homo sapiens, six days, read-out: approximated IC50, growth (metabolic activity). From the text:
(§1) We next investigated whether compounds A-E affected growth and viability of cell lines from T-cell acute lymphoblastic leukaemia (T-ALL) and breast cancer, two tumour types in which elevated Notch signalling has been implicated in tumorigenesis. […] When testing analogues of compounds B and C, five of the seven B analogues and one of the two C analogues produced dose–response curves and IC50s, which however were higher compared to the original hits (Supplemental Fig. 5A; IC50s are presented in Supplemental Table 6).
(§2) Compounds were spotted on white 384-well tissue culture plates (Greiner, cat #781080) using an Echo 525 Acoustic liquid handler (Labcyte). Cells were grown to 80% confluence, detached if required, counted and 20 µl containing 2000–4000 cells per well was then seeded in each well and cultivated for three (4,000 cells seeded) and six days (2,000 cells seeded). […] Luciferase activity (reading out metabolic activity) was determined using the CellTiter-Glo 2.0 kit (CTG, Promega, cat #G9242) following the manufacturer’s instructions and luminescence was measured on a SpectraMaxi3 or Varioscan plate reader (Molecular Devices, Thermofisher).
(ATP-based viability assays read luminescence as a measure of living cells.)

A further test relates to RPMI-8402 cells. The description is as above. Type of test: cell-based. The settings on record: Homo sapiens; RPMI-8402, six days; read-out: approximated IC50, growth (metabolic activity).
Text: as §1, §2

The test system of a further test is MDA-MB-468 cells. The experiment in a line: Three dose response gene expression analysis (qRT-PCR). Type of test: cell-based. The settings on record: 0.1, 1 and 10 µM, 24 h. As to the method: Total RNA from cell lines was isolated using the RNeasy Mini kit (cat #74104, Qiagen), according to the manufacturer’s instructions. qRT-PCR was performed as described elsewhere[51] with some minor modifications: RNA was reverse transcribed to cDNA using iScript Reverse Transcription Supermix (cat # 1708841, Bio-rad). cDNA was then diluted 1:5 in nuclease free H20. qRT-PCR was performed on a C1000 Touch thermal cycler (Bio-rad) and gene expression was detected with SsoAdvanced Universal SYBR Green Supermix (cat # 1725274, Bio-rad). Gene expression was determined by normalizing to GAPDH mRNA expression levels and fold expression change was calculated using the ΔΔCT method (ΔΔCT = ΔCt sample − Δct control). Primers used in qPCR are shown in Supplemental Table 9.
Adherent breast cancer cells were seeded in 24-well cell culture plates (ThermoFisher, Nunc, Delta surface, cat #144530) and T-ALL cells growing in suspension (Jurkat, RPMI-8402) were seeded in non-adherent 24-well plates (ThermoFisher, Nunc, cat […]). 60.000 cells were seeded and treated with 0.1, 1 and 10 µM of each compound. […] Cells were harvested 24 h post treatment and RNA isolation and gene expression analysis (qRT-PCR) was performed as described above.
Background: In qPCR the cycle at which signal appears reflects the starting amount.

The next test relates to HEK293T cells. The experiment in a line: Growth inhibition, metabolic activity (CellTiter-Glo). Type of test: cell-based. The settings on record: six days, Supplemental Fig. 5E. The method, then: We also tested three analogues to compound B and one analogue to compound C. […] To assess the effects of compound A-E in a cell line with very low levels of Notch signalling we repeated the growth inhibition assay in HEK293T cells.
as §2

A further test addresses T1, DHODH (Homo sapiens, UniProt Q02127).
T1 construct: purchased Reaction Biology (contract assay)
The experiment in a line: DHODH enzyme activity assay (Resorufin fluorescence, Reaction Biology). Type of test: biochemical. As to the method: DHODH enzyme activity was determined via fluorescence-based quantification (Resorufin fluorescence as endpoint measurement) at Reaction Biology. Reference compound BAY2402234 was measured in singletons in two biological replicates and compounds were measured in technical replicates within the indicated dose-ranges. Values were normalized to DMSO control and dose–response curves were fitted using the log(inhibitor) versus response – Variable slope (model: Y = Bottom + (Top–Bottom)/(1 + 10^((LogIC50-X)*HillSlope)) equation.

The subject of test [1] is mNotch1ΔE fused to an HiBiT tag. The experiment in a line: HiBit reporter assay. The following applies: for protein stability: summary Fig. 8E. On the set-up: key to protein stability: + indicates that the compound had an effect; -: − indicates that there was no significant effect in the respective assay. Type of test: cell-based, mouse. The method, then:
The Notch1ΔE construct used to generate the Notch reporter cell line (see above) was first cloned in frame into the pBiT3.2-C [TK/HiBiT/Blast] Vector (Promega) and then stably introduced into HEK293T wild type cells, using Lipofectamine transfection, as described. Analogous to the Notch reporter cell line, Blasticidin was used as a selection marker (0.1 mg/ml) and stable cell lines with robust luciferase signals were generated. […] A clone (#D2) with an empty HiBit vector stably integrated was used as control.
20 µl containing 4,000 cells were seeded on 384-well pre-spotted compound plates (Greiner, cat #781080). Cells were incubated for 24 h and viability was determined using CellTiter-Fluor (Promega, cat # G6080), following the manufacturer’s instructions. Next, cells were subjected to the HiBit assay according to the manufacturer’s instructions (Promega, cat # N3030). Prior to cell lysis, the tissue culture plates were allowed to cool down to room temperate. Fluorescence and luminescence signals were recorded using a SpectraMax i3 (Molecular devices) and signals were read at different time-points to determine optimal signal stability. Cells cultivated only with DMSO were used as a reference to determine effects of compounds. MG132, Bafilomycin A1 and the GSI RO4929097 served as additional controls. Celastrol was used to determine the assay window, and a minimum of two technical replicates were measured per assay.
On the technique in general: With HiBiT, luminescence reflects the tagged protein that the partner subunit can reach.

[2] abbreviates: Fig. 7B, read-out: IC50s DHODH assay: IC50.
Where [3] appears, read: dose-range [M] 4.00E-05- 2.03E-09, 3 steps.
Where [4] appears, read: dose-range [M] 4.00E-05- 2.03E-09, 3 steps, read-out: IC50.

T1 sequence (Q02127 whole entry): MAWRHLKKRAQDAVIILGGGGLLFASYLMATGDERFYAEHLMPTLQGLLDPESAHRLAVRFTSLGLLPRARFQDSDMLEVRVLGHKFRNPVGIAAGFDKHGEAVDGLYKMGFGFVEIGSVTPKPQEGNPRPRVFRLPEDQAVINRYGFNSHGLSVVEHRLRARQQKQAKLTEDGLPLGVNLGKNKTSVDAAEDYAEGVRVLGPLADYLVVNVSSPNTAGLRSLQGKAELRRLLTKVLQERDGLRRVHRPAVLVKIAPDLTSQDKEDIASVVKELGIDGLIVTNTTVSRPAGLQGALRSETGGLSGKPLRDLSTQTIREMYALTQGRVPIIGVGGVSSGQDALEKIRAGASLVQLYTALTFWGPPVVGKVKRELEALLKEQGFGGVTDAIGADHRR

With `CC(C)(C)c1ccc(Oc2ccc(N)cn2)cc1` [CB-103, reference compound], the 50% inhibitory concentration (IC50) in the test with JURKAT cells is 1700 nM; with RPMI-8402 cells, 900 nM. In the test with MDA-MB-468 cells, the HES4 expression entry was “upregulation”.

As to `CC(C)(C(=O)NCC(F)(F)C(F)(F)F)C(=O)N[C@@H]1C(=O)Nc2ccccc2-c2ccccc21` [RO4929097, reference compound], the c-MYC expression result with MDA-MB-468 cells is reported as “did not reduce”.

For `CCc1c(C(=O)N(C)Cc2cnn(C(C)C)c2)[nH]c2ccccc12` [compound A], in the test with HEK293T cells, the growth inhibitory effect entry is recorded as “did not exert a growth inhibitory effect”. Also, at DHODH (Fig. 7B), the “IC50s DHODH assay: Hill-Slope” value is listed as -4.5. Also, the IC50 at DHODH (setting [2]) was 2.86e-05 M; at DHODH (setting [4]), 2.9e-05 M. In addition, the Hill-slope on DHODH (setting [3]) was -4.5. For the same molecule, the protein stability entry in test [1] is given as “-”.

Take `Cc1ccc2[nH]c3c(c2c1)CCOC31CCN(Cc2ccccc2-c2ccccc2)CC1` [compound B]: the IC50 in the test on JURKAT cells was found to be 300 nM; in the test on RPMI-8402 cells, 500 nM; on DHODH (setting [2]) it was 2.2e-06 M; on DHODH (setting [4]), 2.2e-06 M. In addition, the “IC50s DHODH assay: Hill-Slope” value against DHODH (Fig. 7B) was -5.7. Besides, the Hill-slope at DHODH (setting [3]) is on record as -5.7. The protein stability entry in test [1] is “+”.

For the molecule `COc1cccc(CNc2ccc(N3CCCCC3)cc2)c1OCc1cccs1` [compound C], the IC50 in the test with JURKAT cells is 4300 nM. Also, in the test on RPMI-8402 cells, the IC50 worked out at 600 nM. For the same molecule, on DHODH (Fig. 7B), the “DHODH enzyme activity (in words)” value is “appeared to reduce DHODH enzyme activity across the dose response range”, the “IC50s DHODH assay: Hill-Slope” value is -15.6 and the “IC50s DHODH assay: IC50” value is on record as “indeterminate”. Further, at DHODH (broader dose range, Fig. 7D, read-out: IC50, relative DHODH activity), the IC50 was determined as 1.01e-08 M. In addition, at DHODH (setting [3]), the Hill-slope is reported as -15.5 and the LogIC50 entry is “Unstable”. The DHODH assay entry at DHODH (overview in comparison to compound C, Supplemental Fig. 9) is recorded as “active”. Also, the HiBiT luciferase signal result in test [1] (24 h, 14-point dose-response, Supplemental Fig. 8D,G) is reported as “dose-dependent decrease of luciferase signal”. In addition, in test [1], the protein stability entry is “+”.

`NC(=O)c1c(NC(=O)NCc2cccnc2)sc2c1CCC2` [compound D]: in the test on HEK293T cells, the growth inhibitory effect entry is on record as “did not exert a growth inhibitory effect”. Moreover, at DHODH (Fig. 7B), the “IC50s DHODH assay: Hill-Slope” value is -5.0. Further, the Hill-slope at DHODH (setting [3]) is -5.0. The IC50 on DHODH (setting [4]) is 9.6e-06 M. The protein stability entry in test [1] is “-”.

Take `Cc1nn(-c2nc3ccccc3s2)c(O)c1C1OC(=O)c2ccccc21` (centres unmarked) [compound E]: in the test with HEK293T cells, the growth inhibitory effect result is “did not exert a growth inhibitory effect”. Moreover, the “IC50s DHODH assay: Hill-Slope” value on DHODH (Fig. 7B) is on record as -4.4. On DHODH (setting [3]), this molecule returned a Hill-slope of -4.4. The IC50 on DHODH (setting [4]) is 3.7e-05 M. The protein stability result in test [1] is given as “-”.

The IC50 is the concentration at which inhibition is half-maximal.
